Data reported in patent publication US11040962B2, “Pesticidally active pyrazole derivatives” (SYNGENTA PARTICIPATIONS AG, priority 2017, dated 2021).

Legend:
Format in all cases: in vivo
Plutella xylostella = Plutella xylostella (diamond back moth) artificial diet test; conditions: 120 h, application rate 200 ppm, L2 larvae, 5 days after infestation, vs untreated, read-out: effect in at least one of the two categories (mortality or growth inhibition)
Description: Plutella xylostella (Diamond Back Moth):
24-well microtiter plates with artificial diet were treated with aqueous test solutions prepared from 10′000 ppm DMSO stock solutions by pipetting. After drying, the plates were infested with L2 larvae (10 to 15 per well). The samples were assessed for mortality and growth inhibition in comparison to untreated samples 5 days after infestation. The following compounds gave an effect of at least 80% in at least one of the two categories (mortality or growth inhibition) at an application rate of 200 ppm: 1, 2, 3, 4, 7, 8, 9, 10, 11, 12, 13, 14, 15, 16, 17, 18, 19, 20, 21, 22, 23, 24, 26, 27, 28 and 29.

Tetranychus urticae = Tetranychus urticae (two-spotted spider mite) bean leaf disc spray test; conditions: foliar, 192 h, application rate 200 ppm, 8 days after infestation, read-out: mortality on mixed population (mobile stages)
Description: Tetranychus urticae (Two-Spotted Spider Mite):
Bean leaf discs on agar in 24-well microtiter plates were sprayed with aqueous test solutions prepared from 10′000 ppm DMSO stock solutions. After drying the leaf discs were infested with a mite population of mixed ages. The samples were assessed for mortality on mixed population (mobile stages) 8 days after infestation.

Thrips tabaci = Thrips tabaci (onion thrips) sunflower leaf disc spray test; conditions: foliar, 144 h, application rate 200 ppm, population of mixed ages, 6 days after infestation
Description: Thrips tabaci (Onion Thrips):
Sunflower leaf discs were placed on agar in 24-well microtiter plates and sprayed with aqueous test solutions prepared from 10′000 ppm DMSO stock solutions. After drying the leaf discs were infested with a Thrips population of mixed ages. The samples were assessed for mortality 6 days after infestation.

Diabrotica balteata = Diabrotica balteata (corn root worm) maize sprout spray test; conditions: 96 h, application rate 200 ppm, L2 larvae, 4 days after infestation, vs untreated, read-out: effect in at least one of the two categories (mortality or growth inhibition)
Description: Diabrotica balteata, (Corn Root Worm)
Maize sprouts, placed on an agar layer in 24-well microtiter plates were treated with aqueous test solutions prepared from 10′000 ppm DMSO stock solutions by spraying. After drying, the plates were infested with L2 larvae (6 to 10 per well). The samples were assessed for mortality and growth inhibition in comparison to untreated samples 4 days after infestation. The following compounds gave an effect of at least 80% in at least one of the two categories (mortality or growth inhibition) at an application rate of 200 ppm: 1, 2, 3, 4, 7, 8, 9, 11, 12, 13, 14, 15, 16, 17, 18, 19, 20, 21, 27, 28 and 29.

Euschistus heros = Euschistus heros (neotropical brown stink bug) soybean leaf spray test; conditions: 120 h, application rate 200 ppm, N2 nymphs, 5 days after infestation, vs untreated, read-out: effect in at least one of the two categories (mortality or growth inhibition)
Description: Euschistus heros (Neotropical Brown Stink Bug)
Soybean leaves on agar in 24-well microtiter plates were sprayed with aqueous test solutions prepared from 10′000 ppm DMSO stock solutions. After drying the leaves were infested with N2 nymphs. The samples were assessed for mortality and growth inhibition in comparison to untreated samples 5 days after infestation. The following compounds gave an effect of at least 80% in at least one of the two categories (mortality or growth inhibition) at an application rate of 200 ppm: 1, 2, 3, 7, 8, 9, 12, 13, 14, 15, 17, 18, 21, 25, 26, 27, 28 and 29.

Spodoptera littoralis = Spodoptera littoralis (Egyptian cotton leaf worm) cotton leaf disc spray test; conditions: foliar, 72 h, application rate 200 ppm, L1 larvae, 3 days after infestation, vs untreated, read-out: control (at least one of mortality, anti-feedant effect, growth inhibition)
Description: Spodoptera littoralis (Egyptian Cotton Leaf Worm)
Cotton leaf discs were placed on agar in 24-well microtiter plates and sprayed with aqueous test solutions prepared from 10′000 ppm DMSO stock solutions. After drying the leaf discs were infested with five L1 larvae. The samples were assessed for mortality, anti-feedant effect, and growth inhibition in comparison to untreated samples 3 days after infestation. Control of Spodoptera littoralis by a test sample is when at least one of mortality, anti-feedant effect, and growth inhibition is higher than the untreated sample.

Cn1nc(C(F)(F)C(F)(F)F)c(C(F)(F)F)c1-n1cc(-c2cc(C(=O)NC3CC3)c(C#N)s2)nn1 [Compound 1, 2-cyano-N-cyclopropyl-5-[1-[2-methyl-5-(1,1,2,2,2-pentafluoroethyl)-4-(trifluoromethyl)pyrazol-3-yl]triazol-4-yl]thiophene-3-carboxamide]
≥ 80%: percent effect (mortality or growth inhibition) at 200 ppm (Plutella xylostella) | mortality at 200 ppm (Tetranychus urticae) | mortality at 200 ppm (Thrips tabaci) | percent effect (mortality or growth inhibition) at 200 ppm (Diabrotica balteata) | percent effect (mortality or growth inhibition) at 200 ppm (Euschistus heros) | percent control (mortality, anti-feedant effect or growth inhibition) at 200 ppm (Spodoptera littoralis)

Cn1nc(C(F)(F)C(F)(F)F)c(C(F)(F)F)c1-n1cc(-c2cc(C(=O)NC3(C#N)CC3)c(C#N)s2)nn1 [Compound 4, 2-cyano-N-(1-cyanocyclopropyl)-5-[1-[2-methyl-5-(1,1,2,2,2-pentafluoroethyl)-4-(trifluoromethyl)pyrazol-3-yl]triazol-4-yl]thiophene-3-carboxamide]
≥ 80%: percent effect (mortality or growth inhibition) at 200 ppm (Plutella xylostella) | mortality at 200 ppm (Tetranychus urticae) | mortality at 200 ppm (Thrips tabaci) | percent effect (mortality or growth inhibition) at 200 ppm (Diabrotica balteata) | percent control (mortality, anti-feedant effect or growth inhibition) at 200 ppm (Spodoptera littoralis)

Cn1nc(C(F)(F)C(F)(F)F)c(C(F)(F)F)c1-n1cc(-c2cc(C(=O)NC3(C#N)CC3)c(Cl)s2)nn1 [Compound 10, 2-chloro-N-(1-cyanocyclopropyl)-5-[1-[2-methyl-5-(1,1,2,2,2-pentafluoroethyl)-4-(trifluoromethyl)pyrazol-3-yl]triazol-4-yl]thiophene-3-carboxamide]
≥ 80%: percent effect (mortality or growth inhibition) at 200 ppm (Plutella xylostella) | mortality at 200 ppm (Thrips tabaci) | percent control (mortality, anti-feedant effect or growth inhibition) at 200 ppm (Spodoptera littoralis)

CN(C(=O)c1cc(-c2cn(-c3c(C(F)(F)F)c(C(F)(F)C(F)(F)F)nn3C)nn2)sc1Cl)C1(C#N)CC1 [Compound 11, 2-chloro-N-(1-cyanocyclopropyl)-N-methyl-5-[1-[2-methyl-5-(1,1,2,2,2-pentafluoroethyl)-4-(trifluoromethyl)pyrazol-3-yl]triazol-4-yl]thiophene-3-carboxamide]
≥ 80%: percent effect (mortality or growth inhibition) at 200 ppm (Plutella xylostella) | mortality at 200 ppm (Thrips tabaci) | percent effect (mortality or growth inhibition) at 200 ppm (Diabrotica balteata) | percent control (mortality, anti-feedant effect or growth inhibition) at 200 ppm (Spodoptera littoralis)

CCN(C(=O)c1cc(-c2cn(-c3c(C(F)(F)F)c(C(F)(F)C(F)(F)F)nn3C)nn2)sc1Cl)C1(C#N)CC1 [Compound 12, 2-chloro-N-(1-cyanocyclopropyl)-N-ethyl-5-[1-[2-methyl-5-(1,1,2,2,2-pentafluoroethyl)-4-(trifluoromethyl)pyrazol-3-yl]triazol-4-yl]thiophene-3-carboxamide]
≥ 80%: percent effect (mortality or growth inhibition) at 200 ppm (Plutella xylostella) | mortality at 200 ppm (Thrips tabaci) | percent effect (mortality or growth inhibition) at 200 ppm (Diabrotica balteata) | percent effect (mortality or growth inhibition) at 200 ppm (Euschistus heros) | percent control (mortality, anti-feedant effect or growth inhibition) at 200 ppm (Spodoptera littoralis)

Cn1nc(C(F)(F)C(F)(F)F)c(C(F)(F)F)c1-c1cc(-c2cc(C(=O)NC3(C#N)CC3)c(C#N)s2)on1 [Compound 16, 2-cyano-N-(1-cyanocyclopropyl)-5-[3-[2-methyl-5-(1,1,2,2,2-pentafluoroethyl)-4-(trifluoromethyl)pyrazol-3-yl]isoxazol-5-yl]thiophene-3-carboxamide]
≥ 80%: percent effect (mortality or growth inhibition) at 200 ppm (Plutella xylostella) | mortality at 200 ppm (Tetranychus urticae) | mortality at 200 ppm (Thrips tabaci) | percent effect (mortality or growth inhibition) at 200 ppm (Diabrotica balteata) | percent control (mortality, anti-feedant effect or growth inhibition) at 200 ppm (Spodoptera littoralis)

CCN(C(=O)c1cc(-c2cc(-c3c(C(F)(F)F)c(C(F)(F)C(F)(F)F)nn3C)no2)sc1C#N)C1(C#N)CC1 [Compound 18, 2-cyano-N-(1-cyanocyclopropyl)-N-ethyl-5-[3-[2-methyl-5-(1,1,2,2,2-pentafluoroethyl)-4-(trifluoromethyl)pyrazol-3-yl]isoxazol-5-yl]thiophene-3-carboxamide]
≥ 80%: percent effect (mortality or growth inhibition) at 200 ppm (Plutella xylostella) | mortality at 200 ppm (Thrips tabaci) | percent effect (mortality or growth inhibition) at 200 ppm (Diabrotica balteata) | percent effect (mortality or growth inhibition) at 200 ppm (Euschistus heros) | percent control (mortality, anti-feedant effect or growth inhibition) at 200 ppm (Spodoptera littoralis)

Cn1nc(C(F)(F)C(F)(F)F)c(C(F)(F)F)c1-c1cc(-c2cc(C(=O)NC3CC3)c(Cl)s2)on1 [Compound 19, 2-chloro-N-cyclopropyl-5-[3-[2-methyl-5-(1,1,2,2,2-pentafluoroethyl)-4-(trifluoromethyl)pyrazol-3-yl]isoxazol-5-yl]thiophene-3-carboxamide]
≥ 80%: percent effect (mortality or growth inhibition) at 200 ppm (Plutella xylostella) | percent effect (mortality or growth inhibition) at 200 ppm (Diabrotica balteata) | percent control (mortality, anti-feedant effect or growth inhibition) at 200 ppm (Spodoptera littoralis)

CN(C(=O)c1cc(-c2cc(-c3c(C(F)(F)F)c(C(F)(F)C(F)(F)F)nn3C)no2)sc1Cl)C1CC1 [Compound 20, 2-chloro-N-cyclopropyl-N-methyl-5-[3-[2-methyl-5-(1,1,2,2,2-pentafluoroethyl)-4-(trifluoromethyl)pyrazol-3-yl]isoxazol-5-yl]thiophene-3-carboxamide]
≥ 80%: percent effect (mortality or growth inhibition) at 200 ppm (Plutella xylostella) | mortality at 200 ppm (Thrips tabaci) | percent effect (mortality or growth inhibition) at 200 ppm (Diabrotica balteata) | percent control (mortality, anti-feedant effect or growth inhibition) at 200 ppm (Spodoptera littoralis)

CCN(C(=O)c1cc(-c2cc(-c3c(C(F)(F)F)c(C(F)(F)C(F)(F)F)nn3C)no2)sc1Cl)C1CC1 [Compound 21, 2-chloro-N-cyclopropyl-N-ethyl-5-[3-[2-methyl-5-(1,1,2,2,2-pentafluoroethyl)-4-(trifluoromethyl)pyrazol-3-yl]isoxazol-5-yl]thiophene-3-carboxamide]
≥ 80%: percent effect (mortality or growth inhibition) at 200 ppm (Plutella xylostella) | percent effect (mortality or growth inhibition) at 200 ppm (Diabrotica balteata) | percent effect (mortality or growth inhibition) at 200 ppm (Euschistus heros) | percent control (mortality, anti-feedant effect or growth inhibition) at 200 ppm (Spodoptera littoralis)

Cn1nc(C(F)(F)C(F)(F)F)c(C(F)(F)F)c1-c1cc(-c2cc(C(=O)NC3(C#N)CC3)c(Cl)s2)on1 [Compound 22, 2-chloro-N-(1-cyanocyclopropyl)-5-[3-[2-methyl-5-(1,1,2,2,2-pentafluoroethyl)-4-(trifluoromethyl)pyrazol-3-yl]isoxazol-5-yl]thiophene-3-carboxamide]
≥ 80%: percent effect (mortality or growth inhibition) at 200 ppm (Plutella xylostella)

CN(C(=O)c1cc(-c2cc(-c3c(C(F)(F)F)c(C(F)(F)C(F)(F)F)nn3C)no2)sc1Cl)C1(C#N)CC1 [Compound 23, 2-chloro-N-(1-cyanocyclopropyl)-N-methyl-5-[3-[2-methyl-5-(1,1,2,2,2-pentafluoroethyl)-4-(trifluoromethyl)pyrazol-3-yl]isoxazol-5-yl]thiophene-3-carboxamide]
≥ 80%: percent effect (mortality or growth inhibition) at 200 ppm (Plutella xylostella) | mortality at 200 ppm (Thrips tabaci) | percent control (mortality, anti-feedant effect or growth inhibition) at 200 ppm (Spodoptera littoralis)

CCN(C(=O)c1cc(-c2cc(-c3c(C(F)(F)F)c(C(F)(F)C(F)(F)F)nn3C)no2)sc1Cl)C1(C#N)CC1 [Compound 24]
≥ 80%: percent effect (mortality or growth inhibition) at 200 ppm (Plutella xylostella) | mortality at 200 ppm (Thrips tabaci) | percent control (mortality, anti-feedant effect or growth inhibition) at 200 ppm (Spodoptera littoralis)

Cn1nc(C(F)(F)C(F)(F)F)c(C(F)(F)F)c1-c1cc(-c2cc(C(=O)NC3CC3)c(C#N)s2)cs1 [Compound 25, 2-cyano-N-cyclopropyl-5-[5-[2-methyl-5-(1,1,2,2,2-pentafluoroethyl)-4-(trifluoromethyl)pyrazol-3-yl]-3-thienyl]thiophene-3-carboxamide]
≥ 80%: mortality at 200 ppm (Tetranychus urticae) | percent effect (mortality or growth inhibition) at 200 ppm (Euschistus heros)
